Experimental data taken from US20190151312A1, “HEPARAN SULFATE BIOSYNTHESIS INHIBITORS FOR THE TREATMENT OF DISEASES” (BioMarin Pharmaceutical Inc., priority 2014, published 2019).

Each molecule was assayed on GM01896 cells (MPS II dermal fibroblasts) (assay: Assay 1: MPS cellular assay, MPS II (heparan sulfate disaccharide biomarkers by LC-MS)). Conditions: Assay 1 for MPS II, heparan sulfate disaccharide biomarkers (I2a4, I2a6, I2S0 and/or I2S6), read-out: IC50 Range.
Type: cell-based, human
Summary of the method: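 MPS II patient dermal fibroblasts (GM01896) treated with compound at ≤30 μM for 4 to 21 days. Heparan sulfate GAGs isolated by anion exchange, digested with heparinases I-III, aniline-tagged against [13C6]aniline standards and quantified by LC-MS; IC50 from curve fitting. Viability monitored by alamar blue or ATP.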
With `Cc1nc2ccc(-c3cc(Nc4ccc(Cl)cc4)nc(N4CCOCC4)n3)cc2n1CCCN(C)C` [[3-(6-{6-[(4-chlorophenyl)amino]-2-morpholin-4-ylpyrimidin-4-yl}-2-methylbenzimidazolyl)propyl]dimethylamine] the IC50 was 500 to 1000 nM.

Same assay, conditions: Homo sapiens, Fibroblast, Assay 1 for MPS II, heparan sulfate disaccharide biomarkers (I2a4, I2a6, I2S0 and/or I2S6), read-out: IC50 Range
Work on `Cc1nn(C)c2cc(-c3cc(Nc4ccc(-c5nnc(C6CC6)[nH]5)cc4)nc(N4CCOCC4)n3)ccc12` [[6-(1,3-dimethyl(1H-indazol-6-yl))-2-morpholin-4-ylpyrimidin-4-yl][4-(5-cyclopropyl(4H-1,2,4-triazol-3-yl))phenyl]amine] yielded an IC50 of less than 500 nM. Work on `CNC(=O)c1ccc(Nc2cc(-c3ccc4ncn(CC5CC5)c4c3)nc(N3CCOCC3)n2)cc1` [[4-({6-[1-(cyclopropylmethyl)benzimidazol-6-yl]-2-morpholin-4-ylpyrimidin-4-yl}amino)phenyl]-N-methylcarboxamide] yielded an IC50 of less than 500 nM. Work on `Cc1nn(C)c2cc(-c3cc(Nc4ccc(-c5nccn5C)cc4)nc(N4CCOCC4)n3)ccc12` [[6-(1,3-dimethyl(1H-indazol-6-yl))-2-morpholin-4-ylpyrimidin-4-yl][4-(1-methylimidazol-2-yl)phenyl]amine] yielded an IC50 of less than 500 nM. For `Cn1ncc2ccc(Nc3cc(-c4ccc5cnn(C)c5c4)nc(N4CCOCC4)n3)cc21` [(1-methyl(1H-indazol-6-yl))[6-(1-methyl(1H-indazol-6-yl))-2-morpholin-4-ylpyrimidin-4-yl]amine], the IC50 was 1000 to 5000 nM. `Cn1ccc2ccc(Nc3cc(-c4ccc5c(CCN)nn(C)c5c4)nc(N4CCOCC4)n3)cc21` [{6-[3-(2-aminoethyl)-1-methyl(1H-indazol-6-yl)]-2-morpholin-4-ylpyrimidin-4-yl}(1-methylindol-6-yl)amine] was tested, and the IC50 was less than 500 nM. `CNC(=O)c1ccc(Nc2cc(-c3ccc4cnn(C)c4c3)nc(N3CCOCC3)n2)cn1` [N-methyl(5-{[6-(1-methyl(1H-indazol-6-yl))-2-morpholin-4-ylpyrimidin-4-yl]amino}(2-pyridyl))carboxamide] showed an IC50 of 500 to 1000 nM. `CNC(=O)c1ccc(Nc2cc(-c3ccc4cnn(C)c4c3)nc(N3CCOCC3)n2)cc1` [N-methyl(4-{[6-(1-methyl(1H-indazol-6-yl))-2-morpholin-4-ylpyrimidin-4-yl]amino}phenyl)carboxamide] showed an IC50 of less than 500 nM. `Cc1nnc(-c2ccc(Nc3cc(-c4ccc5cnn(C)c5c4)nc(N4CCOCC4)n3)cc2)[nH]1` [[6-(1-methyl(1H-indazol-6-yl))-2-morpholin-4-ylpyrimidin-4-yl][4-(5-methyl(4H-1,2,4-triazol-3-yl))phenyl]amine] was tested, and the IC50 was less than 500 nM. In the case of `Cn1ccc(-c2ccc(Nc3cc(-c4ccc5cnn(C)c5c4)nc(N4CCOCC4)n3)cc2)n1` [[6-(1-methyl(1H-indazol-6-yl))-2-morpholin-4-ylpyrimidin-4-yl][4-(1-methylpyrazol-3-yl)phenyl]amine], the IC50 is reported as 500 to 1000 nM. Molecule `CC(=O)c1ccc(Nc2cc(-c3ccc4cnn(C)c4c3)nc(N3CCOCC3)n2)cc1` [1-acetyl-4-{[6-(1-methyl(1H-indazol-6-yl))-2-morpholin-4-ylpyrimidin-4-yl]amino}benzene] has an IC50 of 500 to 1000 nM. In the case of `Cc1cnn(-c2ccc(Nc3cc(-c4ccc5cnn(C)c5c4)nc(N4CCOCC4)n3)cc2)n1` [[4-(4-methyl(1,2,3-triazol-2-yl))phenyl][6-(1-methyl(1H-indazol-6-yl))-2-morpholin-4-ylpyrimidin-4-yl]amine], the IC50 is reported as less than 500 nM. Work on `Clc1ccc(Nc2cc(-c3ccc4cn(CC5CC5)nc4c3)nc(N3CCOCC3)n2)cc1` [(4-chlorophenyl){6-[2-(cyclopropylmethyl)(2H-indazol-6-yl)]-2-morpholin-4-ylpyrimidin-4-yl}amine] yielded an IC50 of 1000 to 5000 nM. With `Cc1nn(CCN2CCOCC2)c2cc(-c3cc(Nc4ccc(Cl)cc4)nc(N4CCOCC4)n3)ccc12` [(4-chlorophenyl){6-[3-methyl-1-(2-morpholin-4-ylethyl)(1H-indazol-6-yl)]-2-morpholin-4-ylpyrimidin-4-yl}amine] the IC50 was 500 to 1000 nM. Molecule `Cn1nc(CCCN)c2ccc(-c3cc(Nc4ccc(Cl)cc4)nc(N4CCOCC4)n3)cc21` [{6-[3-(3-aminopropyl)-1-methyl(1H-indazol-6-yl)]-2-morpholin-4-ylpyrimidin-4-yl}(4-chlorophenyl)amine] has an IC50 of 1000 to 5000 nM. Work on `CNC(=O)c1ccc(Nc2cc(-c3ccc4cn(CCN(C)C)nc4c3)nc(N3CCOCC3)n2)cc1` [{4-[(6-{2-[2-(dimethylamino)ethyl](2H-indazol-6-yl)}-2-morpholin-4-ylpyrimidin-4-yl)amino]phenyl}-N-methylcarboxamide] yielded an IC50 of less than 500 nM. With `CC(=O)Nc1ccc(Nc2cc(-c3ccc4ncn(C)c4c3)nc(N3CCOCC3)n2)cc1` [N-(4-{[6-(1-methylbenzimidazol-6-yl)-2-morpholin-4-ylpyrimidin-4-yl]amino}phenyl)acetamide] the IC50 was 500 to 1000 nM. With `Cc1nn(C)c2cc(-c3cc(Nc4ccc(Cl)cc4)nc(N4CCOCC4)n3)ncc12` [[6-(1,3-dimethylpyrazolo[5,4-d]pyridin-6-yl)-2-morpholin-4-ylpyrimidin-4-yl](4-chlorophenyl)amine] the IC50 was less than 500 nM. In the case of `Cn1ncc2ccc(-c3cc(Nc4ccc(S(C)(=O)=O)cc4)nc(N4CCOCC4)n3)cc21` [1-{[6-(1-methyl(1H-indazol-6-yl))-2-morpholin-4-ylpyrimidin-4-yl]amino}-4-(methylsulfonyl)benzene], the IC50 is reported as 1000 to 5000 nM. Molecule `Cn1ncc2ccc(-c3cc(Nc4ccc(Cl)cc4)nc(N4CCOCC4)n3)nc21` [(4-chlorophenyl)[6-(1-methylpyrazolo[4,5-e]pyridin-6-yl)-2-morpholin-4-ylpyrimidin-4-yl]amine] has an IC50 of 1000 to 5000 nM. In the case of `Cc1c(Nc2ccc(Cl)cc2)nc(N2CCOCC2)nc1-c1ccc2cnn(C)c2c1` [(4-chlorophenyl)[5-methyl-6-(1-methyl(1H-indazol-6-yl))-2-morpholin-4-ylpyrimidin-4-yl]amine], the IC50 is reported as 1000 to 5000 nM. Work on `Cn1nc(CCN2CCOCC2)c2ccc(-c3cc(Nc4ccc5cn[nH]c5c4)nc(N4CCOCC4)n3)cc21` [1H-indazol-6-yl{6-[1-methyl-3-(2-morpholin-4-ylethyl)(1H-indazol-6-yl)]-2-morpholin-4-ylpyrimidin-4-yl}amine] yielded an IC50 of 500 to 1000 nM. `Cc1nn(C)c2cc(-c3cc(Nc4ccc(-n5nccn5)cc4)nc(N4CCOCC4)n3)cnc12` [[6-(1,3-dimethylpyrazolo[4,5-b]pyridin-6-yl)-2-morpholin-4-ylpyrimidin-4-yl](4-(1,2,3-triazol-2-yl)phenyl)amine] showed an IC50 of less than 500 nM. `CNC(=O)c1ccc(Nc2cc(-c3ccc4nc[nH]c4c3)nc(N3CCOCC3)n2)cn1` [{5-[(6-benzimidazol-6-yl-2-morpholin-4-ylpyrimidin-4-yl)amino](2-pyridyl)}-N-methylcarboxamide] gave an IC50 of 1000 to 5000 nM. In the case of `Cn1cccc1-c1ccc(Nc2cc(-c3ccc4c(CCN5CCOCC5)nn(C)c4c3)nc(N3CCOCC3)n2)cc1` [{6-[1-methyl-3-(2-morpholin-4-ylethyl)(1H-indazol-6-yl)]-2-morpholin-4-ylpyrimidin-4-yl}[4-(1-methylpyrrol-2-yl)phenyl]amine], the IC50 is reported as less than 500 nM. Work on `Cn1ncc2ccc(-c3cc(Nc4ccc(-n5nccn5)cc4)nc(N4CCOCC4)n3)cc21` [[6-(1-methyl(1H-indazol-6-yl))-2-morpholin-4-ylpyrimidin-4-yl](4-(1,2,3-triazol-2-yl)phenyl)amine] yielded an IC50 of less than 500 nM. `Cn1ncc2ccc(-c3cc(Nc4ccc(-c5cocn5)cc4)nc(N4CCOCC4)n3)cc21` [[6-(1-methyl(1H-indazol-6-yl))-2-morpholin-4-ylpyrimidin-4-yl](4-(1,3-oxazol-4-yl)phenyl)amine] was tested, and the IC50 was less than 500 nM.
